Target: T1, MAT2A (Homo sapiens, UniProt P31153)
T1 construct: His6; made in house; host or cells: SF9 insect cells
Assay: MAT2A biochemical assay (colorimetric inorganic phosphate detection, PiColorLock)
Settings: recombinant His6-tagged MAT2A 1 μg/ml; 60 minutes preincubation at 25° C.; L-Met 80 μM, ATP 100 μM; 60 minutes reaction; read at 623 nm; read-out: MAT2A Inhibition Score
Outline: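 Colorimetric malachite green readout of phosphate released when MAT2A turns over L-Met and ATP, after 60 min at room temperature. Enzyme: SF9-expressed His6-tagged MAT2A at 1 μg/ml. Buffer: Tris pH 8.0, 50 mM KCl, 15 mM MgCl2, 300 uM EDTA, 0.005% BSA. Compounds tested as ten-point three-fold dilutions.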

T1 sequence (P31153 whole entry): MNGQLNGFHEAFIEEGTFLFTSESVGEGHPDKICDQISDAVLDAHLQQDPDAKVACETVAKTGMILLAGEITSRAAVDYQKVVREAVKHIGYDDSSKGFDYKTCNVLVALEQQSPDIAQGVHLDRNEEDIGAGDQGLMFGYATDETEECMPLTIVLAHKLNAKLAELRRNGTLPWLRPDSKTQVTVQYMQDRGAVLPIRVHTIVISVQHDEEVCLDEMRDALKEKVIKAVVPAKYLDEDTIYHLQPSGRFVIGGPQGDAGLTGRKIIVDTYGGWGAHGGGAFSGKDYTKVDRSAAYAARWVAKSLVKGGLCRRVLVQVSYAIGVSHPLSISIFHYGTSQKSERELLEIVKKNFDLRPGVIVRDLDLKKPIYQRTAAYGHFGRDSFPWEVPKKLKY

| SMILES | IC50 [nM] |
| --- | --- |
| NCCn1cc(-c2ccc3ncccc3c2)c(=O)n2nc(-c3ccccc3)c(-c3ccccc3)c12 [Compound 353, 4-(2-aminoethyl)-2,3-diphenyl-6-(quinolin-6-yl)pyrazolo[1,5-a]pyrimidin-7(4H)-one] | 1000 to 10000 |
| COc1ccc(-c2c(O)[nH]c3c(C4=CCCCC4)c(-c4ccccc4)nn3c2=O)cc1 [Compound 279, 3-(cyclohex-1-en-1-yl)-5-hydroxy-6-(4-methoxyphenyl)-2-phenylpyrazolo[1,5-a]pyrimidin-7(4H)-one] | < 100 |
| COc1ccc(-c2c(CNc3nc[nH]n3)[nH]c3c(-c4ccccc4)c(-c4ccccc4)nn3c2=O)cc1 [Compound 264, 5-(((1H-1,2,4-triazol-3-yl)amino)methyl)-6-(4-methoxyphenyl)-2,3-diphenylpyrazolo[1,5-a]pyrimidin-7(4H)-one] | < 100 |
| COc1ccc(-c2c(Nc3cnoc3)[nH]c3c(-c4ccccc4)c(-c4ccccc4)nn3c2=O)cc1 [Compound 139, 5-(isoxazol-4-ylamino)-6-(4-methoxyphenyl)-2,3-diphenylpyrazolo[1,5-a]pyrimidin-7(4H)-one] | < 100 |
| O=c1c(-c2ccc3ncccc3c2)cn(CCn2cnnn2)c2c(-c3ccccc3)c(-c3ccccc3)nn12 [Compound 352, 4-(2-(1H-tetrazol-1-yl)ethyl)-2,3-diphenyl-6-(quinolin-6-yl)pyrazolo[1,5-a]pyrimidin-7(4H)-one] | 1000 to 10000 |
| COc1ccc(-c2c(Nc3cccc(C(N)=O)n3)[nH]c3c(-c4ccccc4)c(-c4ccccc4)nn3c2=O)cc1 [Compound 112, 6-((6-(4-methoxyphenyl)-7-oxo-2,3-diphenyl-4,7-dihydropyrazolo[1,5-a]pyrimidin-5-yl)amino)picolinamide] | < 100 |
| Cc1[nH]c2c(-c3ccccc3)c(-c3ccccc3)nn2c(=O)c1C1=CCC(=O)CC1 [Compound 336, 5-methyl-6-(4-oxocyclohex-1-en-1-yl)-2,3-diphenylpyrazolo[1,5-a]pyrimidin-7(4H)-one] | 100 to 1000 |
| COc1ccc(-c2c(Nc3cncc(C#N)n3)[nH]c3c(-c4ccccc4)c(-c4ccccc4)nn3c2=O)cc1 [Compound 131, 6-(6-(4-methoxyphenyl)-7-oxo-2,3-diphenyl-4,7-dihydropyrazolo[1,5-a]pyrimidin-5-ylamino)pyrazine-2-carbonitrile] | < 100 |
| COCn1c(-c2ccccc2)c(C2=CCCCC2)c2nc(C)c(-c3ccc(OC)cc3)c(=O)n21 [Compound 291, 3-cyclohexenyl-1-(methoxymethyl)-6-(4-methoxyphenyl)-5-methyl-2-phenylpyrazolo[1,5-a]pyrimidin-7(1H)-one] | < 100 |
| Cc1c(-c2ccc3ncccc3c2)c(=O)n2nc(-c3ccccc3)c(-c3ccccc3)c2n1C [Compound 318, 4,5-dimethyl-2,3-diphenyl-6-(quinolin-6-yl)pyrazolo[1,5-a]pyrimidin-7(4H)-one] | 100 to 1000 |
| Cc1[nH]c2c(N3CCCCC3)c(-c3ccccc3)nn2c(=O)c1-c1ccc(C(N)=O)cc1 [Compound 305, 4-(5-methyl-7-oxo-2-phenyl-3-(piperidin-1-yl)-4,7-dihydropyrazolo[1,5-a]pyrimidin-6-yl)benzamide] | 100 to 1000 |
| COc1ccc(-c2c(Nc3cccnn3)[nH]c3c(-c4ccccc4)c(-c4ccccc4)nn3c2=O)cc1 [Compound 101, 6-(4-methoxyphenyl)-2,3-diphenyl-5-(pyridazin-3-ylamino)pyrazolo[1,5-a]pyrimidin-7(4H)-one] | < 100 |
| COc1ccc(-c2c(Nc3ccccn3)[nH]c3c(-c4ccccc4F)c(-c4ccccc4)nn3c2=O)cc1 [Compound 179, 3-(2-fluorophenyl)-6-(4-methoxyphenyl)-2-phenyl-5-(pyridin-2-ylamino)pyrazolo[1,5-a]pyrimidin-7(4H)-one] | < 100 |
| COc1ccc(-c2c(Nc3cncnc3)[nH]c3c(-c4ccccc4)c(-c4ccccc4)nn3c2=O)cc1 [Compound 120, 6-(4-methoxyphenyl)-2,3-diphenyl-5-(pyrimidin-5-ylamino)pyrazolo[1,5-a]pyrimidin-7(4H)-one] | < 100 |
| COc1ccc(-c2c(Nc3nnc(C)s3)[nH]c3c(-c4ccccc4)c(-c4ccccc4)nn3c2=O)cc1 [Compound 285, 6-(4-methoxyphenyl)-5-((5-methyl-1,3,4-thiadiazol-2-yl)amino)-2,3-diphenylpyrazolo[1,5-a]pyrimidin-7(4H)-one] | < 100 |
| Cc1[nH]c2c(N3CCCCC3)c(-c3ccccc3)nn2c(=O)c1-c1cn[nH]c1 [Compound 266, 5-methyl-2-phenyl-3-(piperidin-1-yl)-6-(1H-pyrazol-4-yl)pyrazolo[1,5-a]pyrimidin-7(4H)-one] | < 100 |
| O=c1c(-c2ccc3ncccc3c2)c(Nc2ccon2)[nH]c2c(C3=CCCCC3)c(-c3ccccc3)nn12 [Compound 176, 3-cyclohexenyl-5-(isoxazol-3-ylamino)-2-phenyl-6-(quinolin-6-yl)pyrazolo[1,5-a]pyrimidin-7(4H)-one] | < 100 |

| SMILES | IC50 [nM] |
| --- | --- |
| Cc1[nH]c2c(-c3ccccc3)c(-c3ccnc(Cl)c3)nn2c(=O)c1-c1ccc2ncccc2c1 [Compound 350, 2-(2-chloropyridin-4-yl)-5-methyl-3-phenyl-6-(quinolin-6-yl)pyrazolo[1,5-a]pyrimidin-7(4H)-one] | 1000 to 10000 |
| Cc1[nH]c2c(-c3ccccc3)c(-c3ccccc3)nn2c(=O)c1-c1ccc(O)c(F)c1 [Compound 238, 6-(3-fluoro-4-hydroxyphenyl)-5-methyl-2,3-diphenylpyrazolo[1,5-a]pyrimidin-7(4H)-one] | < 100 |
| Cc1[nH]c2c(-c3ccccc3)c(-c3ccccc3)nn2c(=O)c1-c1ccc2c(c1)NCCO2 [Compound 258, 6-(3,4-dihydro-2H-benzo[b][1,4]oxazin-6-yl)-5-methyl-2,3-diphenylpyrazolo[1,5-a]pyrimidin-7(4H)-one] | < 100 |
| COc1ccc(-c2c(Nc3ncncn3)[nH]c3c(-c4ccccc4)c(-c4ccccc4)nn3c2=O)cc1 [Compound 132, 5-((1,3,5-triazin-2-yl)amino)-6-(4-methoxyphenyl)-2,3-diphenylpyrazolo[1,5-a]pyrimidin-7(4H)-one] | < 100 |
| COc1ccc(-c2c(C)[nH]c3c(-c4ccccc4)c(-c4ccccc4)nn3c2=O)cn1 [Compound 333, 6-(6-methoxypyridin-3-yl)-5-methyl-2,3-diphenylpyrazolo[1,5-a]pyrimidin-7(4H)-one] | 100 to 1000 |
| Cc1[nH]c2c(C3=CCCCC3)c(-c3ccccc3)nn2c(=O)c1-c1ccc(O)cc1 [Compound 240, 3-(cyclohex-1-en-1-yl)-6-(4-hydroxyphenyl)-5-methyl-2-phenylpyrazolo[1,5-a]pyrimidin-7(4H)-one] | < 100 |
| COc1ccc(-c2c(Nc3cscn3)[nH]c3c(-c4ccccc4)c(-c4ccccc4)nn3c2=O)cc1 [Compound 192, 6-(4-methoxyphenyl)-2,3-diphenyl-5-(thiazol-4-ylamino)pyrazolo[1,5-a]pyrimidin-7(4H)-one] | < 100 |
| CC(=O)Nc1[nH]c2c(-c3ccccc3)c(-c3ccccc3)nn2c(=O)c1-c1ccc2ncccc2c1 [Compound 172, N-(7-oxo-2,3-diphenyl-6-(quinolin-6-yl)-4,7-dihydropyrazolo[1,5-a]pyrimidin-5-yl)acetamide] | < 100 |
| COc1ccc(-c2c(C#N)[nH]c3c(-c4ccccc4)c(-c4ccccc4)nn3c2=O)cc1 [Compound 314, 6-(4-methoxyphenyl)-7-oxo-2,3-diphenyl-4,7-dihydropyrazolo[1,5-a]pyrimidine-5-carbonitrile] | 100 to 1000 |
| COc1ccc(-c2c(Nc3c[nH]cn3)[nH]c3c(-c4ccccc4)c(-c4ccccc4)nn3c2=O)cc1 [Compound 184, 5-((1H-imidazol-4-yl)amino)-6-(4-methoxyphenyl)-2,3-diphenylpyrazolo[1,5-a]pyrimidin-7(4H)-one] | < 100 |
| Cc1[nH]c2c(-c3ccccc3)c(-c3ccccc3F)nn2c(=O)c1-c1ccc2ncccc2c1 [Compound 205, 2-(2-fluorophenyl)-5-methyl-3-phenyl-6-(quinolin-6-yl)pyrazolo[1,5-a]pyrimidin-7(4H)-one] | < 100 |
| COc1ccc(-c2c(Nc3ccc(Cl)nn3)[nH]c3c(-c4ccccc4)c(-c4ccccc4)nn3c2=O)cc1 [Compound 125, 5-((6-chloropyridazin-3-yl)amino)-6-(4-methoxyphenyl)-2,3-diphenylpyrazolo[1,5-a]pyrimidin-7(4H)-one] | < 100 |
| Cc1[nH]c2c(C3CCCCC3)c(-c3ccccc3)nn2c(=O)c1-c1ccc2ncccc2c1 [Compound 277, 3-cyclohexyl-5-methyl-2-phenyl-6-(quinolin-6-yl)pyrazolo[1,5-a]pyrimidin-7(4H)-one] | < 100 |
| COc1ccc(-c2nn3c(=O)c(-c4ccc5ncccc5c4)c(C)[nH]c3c2-c2ccccc2)cc1 [Compound 243, 2-(4-methoxyphenyl)-5-methyl-3-phenyl-6-(quinolin-6-yl)pyrazolo[1,5-a]pyrimidin-7(4H)-one] | 1000 to 10000 |
| COc1ccc(-c2c(Nc3ccon3)[nH]c3c(C4=CCCCC4)c(-c4ccccc4)nn3c2=O)cc1 [Compound 165, 3-(cyclohex-1-en-1-yl)-5-(isoxazol-3-ylamino)-6-(4-methoxyphenyl)-2-phenylpyrazolo[1,5-a]pyrimidin-7(4H)-one] | < 100 |
| Cc1[nH]c2c(-c3ccccc3)c(-c3ccc([N+](=O)[O-])cc3)nn2c(=O)c1-c1ccc2ncccc2c1 [Compound 251, 5-methyl-2-(4-nitrophenyl)-3-phenyl-6-(quinolin-6-yl)pyrazolo[1,5-a]pyrimidin-7(4H)-one] | 1000 to 10000 |
| Cc1[nH]c2c(-c3ccccc3)c(-c3cccc(Cl)c3)nn2c(=O)c1-c1ccc2ncccc2c1 [Compound 346, 2-(3-chlorophenyl)-5-methyl-3-phenyl-6-(quinolin-6-yl)pyrazolo[1,5-a]pyrimidin-7(4H)-one] | 1000 to 10000 |

Reference: US10800782B2, “Inhibitors of cellular metabolic processes” (Agios Pharmaceuticals, Inc., priority 2016, dated 2020)
